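Following 48 hours of exposure in 96-well plates, responses at five concentrations were used to interpolate endpoints linearly. Here, GI50 denotes the concentration required for 50% inhibition of growth.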 Activity calls are given as the source filed them. Rule as the data show it: active = GI50 up to about 1.1 µM and inactive = higher.
Assays:
Experiment in all cases: inhibition of tumour cell growth, NCI panel, 48 h
[1] = system: NCI-H522
[2] = system: OVCAR-4
[3] = system: MOLT-4
[4] = system: LOX IMVI
[5] = system: HOP-92
[6] = system: Malme-3M
[7] = system: K562
[8] = system: UACC-62
[9] = system: HCC 2998
[10] = system: HOP-62
[11] = system: A549
[12] = system: OVCAR-5
[13] = system: NCI-H226
[14] = system: COLO 205
[15] = system: KM12
[16] = system: TK-10
[17] = system: HCT-15
[18] = system: MDA-N
[19] = system: OVCAR-8
[20] = system: SF-539

Row | Structure (SMILES) | GI50 [1] | GI50 [2] | GI50 [3] | GI50 [4] | GI50 [5] | GI50 [6] | GI50 [7] | GI50 [8] | GI50 [9] | GI50 [10] | GI50 [11] | GI50 [12] | GI50 [13] | GI50 [14] | GI50 [15] | GI50 [16] | GI50 [17] [µM] | GI50 [18] | GI50 [19] | GI50 [20]
1 | C/C(=N\NC(=[Se])N1CCN(c2ccccn2)CC1)c1ccccn1 | 0.125 µM (active) | 0.0933 µM (active) | 2.58 µM (inactive) | 0.0268 µM (active) | 0.508 µM (active) | 0.297 µM (active) | 0.0448 µM (active) | 1.41 µM (inactive) | 11.1 µM (inactive) | 0.0728 µM (active) | 3.72 µM (inactive) | 5.97 µM (inactive) | 0.912 µM (active) | 0.01 µM (active) | 0.598 µM (active) | 7.38 µM (inactive) | 0.01 | 2.99 µM (inactive) | 0.01 µM (active) | 2.51 µM (inactive)
2 | CNC(=O)CCC(NC(C)=O)C(=O)NC(Cc1ccc(NC(=O)CCCCC(C)=O)cc1)C(=O)NC(CCC(=O)NC)C(=O)NC (stereo not given) | > 100 µM (inactive) | > 100 µM (inactive) | > 100 µM (inactive) | > 100 µM (inactive) | > 100 µM (inactive) | > 100 µM (inactive) | > 100 µM (inactive) | > 100 µM (inactive) | > 100 µM (inactive) | > 100 µM (inactive) | > 100 µM (inactive) | > 100 µM (inactive) | > 100 µM (inactive) | > 100 µM (inactive) | > 100 µM (inactive) | > 100 µM (inactive) | > 100 | > 100 µM (inactive) | > 100 µM (inactive) | > 100 µM (inactive)
3 | O=C1CSC(c2cccs2)N1c1nc2cc3sc(N4C(=O)CSC4c4cccs4)nc3cc2s1 (stereo not given) | 13.2 µM (inactive) | > 50 µM (inactive) | 6.4 µM (inactive) | 29.5 µM (inactive) | > 50 µM (inactive) | > 50 µM (inactive) | 34.5 µM (inactive) | > 50 µM (inactive) | > 50 µM (inactive) | > 50 µM (inactive) | 4.23 µM (inactive) | > 50 µM (inactive) | 6.38 µM (inactive) | 1.21 µM (inactive) | > 50 µM (inactive) | > 50 µM (inactive) | 33.4 | > 50 µM (inactive) | > 50 µM (inactive) | 0.753 µM (active)
4 | O=C(Nc1cccc(-c2cn3ccccc3n2)c1)c1ccncc1 | 23.6 µM (inactive) | 34.7 µM (inactive) | 21.7 µM (inactive) | 38.3 µM (inactive) | 98.2 µM (inactive) | 29.3 µM (inactive) | 24.6 µM (inactive) | 20.9 µM (inactive) | 56.2 µM (inactive) | 33.2 µM (inactive) | 44.9 µM (inactive) | > 100 µM (inactive) | 56.5 µM (inactive) | 31.3 µM (inactive) | 32.6 µM (inactive) | 56.9 µM (inactive) | 24.2 | 31.3 µM (inactive) | 34 µM (inactive) | 50.6 µM (inactive)
5 | O=c1nc(N2CCNCC2)oc2cc(Cl)oc(=O)c12 | 1.7 µM (inactive) | 5.45 µM (inactive) | 1.76 µM (inactive) | 2.06 µM (inactive) | 3.94 µM (inactive) | 3.93 µM (inactive) | 2.55 µM (inactive) | 7.67 µM (inactive) | 11.1 µM (inactive) | 4.69 µM (inactive) | 7.52 µM (inactive) | 15.5 µM (inactive) | 15.4 µM (inactive) | 2.9 µM (inactive) | 5.96 µM (inactive) | 9.02 µM (inactive) | 3.25 | 2.2 µM (inactive) | 2 µM (inactive) | 2.25 µM (inactive)
6 | COc1ccccc1Cn1[nH]c(=O)c2cc([N+](=O)[O-])ccc21 | > 100 µM (inactive) | > 100 µM (inactive) | > 100 µM (inactive) | > 100 µM (inactive) | 24.7 µM (inactive) | > 100 µM (inactive) | 51.6 µM (inactive) | 76 µM (inactive) | 65.9 µM (inactive) | > 100 µM (inactive) | 93.1 µM (inactive) | > 100 µM (inactive) | > 100 µM (inactive) | > 100 µM (inactive) | > 100 µM (inactive) | > 100 µM (inactive) | > 100 | 47.8 µM (inactive) | > 100 µM (inactive) | > 100 µM (inactive)

From ChEMBL document CHEMBL1201862, “PubChem BioAssay data set” (2004)
